Values after ≈ are worked out from the molar mass of the structure shown. Values joined by “and” are separate entries in the source; they are usually repeats but may differ in a detail not shown here. Equal entries are not always repeated. Where two headings read alike, the source gives them in different places.
Legend:
Burkholderia spp. = details: initial MIC testing
B. cepacia = test: Broth microdilution MIC (Example 10); details: initial MIC testing
Pseudomonas aeruginosa = details: P. aeruginosa MMX 103 (ATCC 27853); CLSI QC ranges shown in parenthesis; cited from earlier work
[1] = Rat nose-only inhalation study: whole blood and lung BisEDT; format: in vivo, F344 rats; details: single inhalation dose 47 μg/kg, 8 hr
Protocol: Inhalation Exposure: The initial exposure of BisEDT (Bismuth-1,2-ethanedithiol) was formulated as […] at 100 mg/mL in suspension in 0.5% TWEEN 80®, 10 mM sodium phosphate, pH 7.4, in NaCl (adjusted to approximately 300 mOsm). Aerosols were generated with a commercial compressed air jet nebulizer, PAD LC PLUS®, operated with an inlet pressure of 20 psi.
Detailed gross necropsies were performed on all animals (found dead, moribund, or scheduled necropsy) and consisted of a complete external and internal examination including body orifices and cranial, thoracic, and abdominal organs and tissues. All gross findings will be recorded in descriptive terms. […] Lungs collected and weighed.

E. faecium = test: Broth microdilution MIC (Example 11); details: Enterococcus faecium, VRE, VRE vanA Lev^R Cip^R Ery^R
Enterococcus spp. = test: Broth microdilution MIC (Example 11); details: read-out: MIC values
[2] = tested on: P. aeruginosa and A. baumannii; test: Broth microdilution MIC (Example 11); details: read-out: MIC values
Achromobacter spp. = test: MIC against CF bacterial strains (Example 5)
Enterobacteriaceae = test: Broth microdilution MIC (Example 11); details: Escherichia coli, read-out: MIC values
Candida glabrata = test: Broth microdilution antifungal susceptibility (Example 13); format: cell-based; details: Nakaseomyces glabratus
S. aureus ATCC 29213 = details: control strain ATCC 29213; per CLSI M100-S24 or provided by Microbion; cited from earlier work
C. glabrata = test: Broth microdilution MIC, yeast (Example 11); format: cell-based; details: Nakaseomyces glabratus, FLU^R
C. tropicalis = test: Broth microdilution MIC, yeast (Example 11); format: cell-based; details: Candida tropicalis, FLU^R
Candida auris = test: Broth microdilution antifungal susceptibility (Example 13); format: cell-based; details: Candidozyma auris

Work on `C[C@@H](O)[C@H]1C(=O)N2C(C(=O)O)=C(S[C@@H]3CN[C@H](C(=O)N(C)C)C3)[C@H](C)[C@H]12` [MEM] yielded an MIC (Burkholderia spp.; B. multivorans isolate 1580 (CIP-R)) of 2 µg/mL (≈ 5.22 µM), an MIC (Burkholderia spp.; B. multivorans isolate 1791) of 4 µg/mL (≈ 10.4 µM) and an MIC (Burkholderia spp.; B. multivorans isolate 1795 (MEM-I, CIP-R)) of 8 µg/mL (≈ 20.9 µM). For the same compound, the MIC (Burkholderia spp.; B. multivorans isolate 5665 (CIP-I)) was 2 µg/mL (≈ 5.22 µM), the MIC (Burkholderia spp.; B. multivorans isolate 8952 (CIP-I)) was 2 µg/mL (≈ 5.22 µM) and the MIC (B. cepacia; B. cepacia isolate 0546) was 4 µg/mL (≈ 10.4 µM). It also gave an MIC (B. cepacia; B. cepacia isolate 0547) of 2 µg/mL (≈ 5.22 µM), an MIC (B. cepacia; B. cepacia isolate 1793) of 4 µg/mL (≈ 10.4 µM) and an MIC (B. cepacia; B. cepacia isolate 1794) of 4 µg/mL (≈ 10.4 µM). The MIC (B. cepacia; B. cepacia isolate 9040) was 4 µg/mL (≈ 10.4 µM).
For `C[C@@H](O)[C@H]1C(=O)N2C(C(=O)O)=C(S[C@@H]3CN[C@H](C(=O)N(C)C)C3)[C@H](C)[C@H]12` [Meropenem, reference compound], the “CLSI QC range of MIC” value (Pseudomonas aeruginosa) is listed as “(0.25-1) μg/mL”.
In the case of `C1C[S][Bi]([S]CC[S][Bi]2[S]CC[S]2)[S]1` [BisEDT, bismuth-1,2-ethanedithiol], the “Mean BisEDT Conc, whole blood” value [1] is reported as 114 ng/mL.
Work on `CC(S)C(C)S.[Bi]` (stereo not shown) [BisBDT, bismuth-2,3-butanedithiol] yielded an MIC (E. faecium; E. faecium MMX 485) of 0.5 µg/mL, an MIC (E. faecium; E. faecium MMX 752) of 1 µg/mL and an MIC (Enterococcus spp.) of 0.25 to 1 µg/mL. For the same compound, the MIC [2] was 0.5 to 2 µg/mL, the MIC (Achromobacter spp.) was 0.5 µg/mL and the MIC (Achromobacter spp.; Achromobacter) was 1 µg/mL. It also gave an MIC (Enterobacteriaceae) of 0.5 to 2 µg/mL, an MIC (Candida glabrata; ATCC90030, read-out: MIC0 (complete inhibition), isolate ATCC 90030 (Susceptible)) of 1 µg/mL and an MIC (Candida glabrata; ATCC90030, read-out: MIC2 (50% inhibition), isolate ATCC 90030 (Susceptible)) of 0.5 µg/mL. For the same compound, the MIC (Candida glabrata; read-out: MIC0 (complete inhibition), isolate ATCC MYA-2950 (Susceptible)) was 1 µg/mL, the MIC (Candida glabrata; read-out: MIC0 (complete inhibition), isolate MMX 7087 (Susceptible)) was 1 µg/mL and the MIC (Candida glabrata; read-out: MIC0 (complete inhibition), isolate MMX 7093 (FLU-R)) was 2 µg/mL. For the same compound, the MIC (Candida glabrata; read-out: MIC0 (complete inhibition), isolate MMX 7101 (FLU-R)) was 1 µg/mL, the MIC (Candida glabrata; read-out: MIC0 (complete inhibition), isolate MMX 7103 (CASP-R, MICA-R)) was 1 µg/mL and the MIC (Candida glabrata; read-out: MIC0 (complete inhibition), isolate MMX 7111 (Susceptible)) was 1 µg/mL. The MIC (Candida glabrata; read-out: MIC0 (complete inhibition), isolate MMX 7285 (CASP-R, MICA-R)) was 0.5 µg/mL, the MIC (Candida glabrata; read-out: MIC0 (complete inhibition), isolate MMX 7307 (CASP-R, MICA-R, FLU-R)) was 1 µg/mL and the MIC (Candida glabrata; read-out: MIC0 (complete inhibition), isolate MMX 7549 (Susceptible)) was 1 µg/mL. The MIC (Candida glabrata; read-out: MIC2 (50% inhibition), isolate ATCC MYA-2950 (Susceptible)) was 0.5 µg/mL, the MIC (Candida glabrata; read-out: MIC2 (50% inhibition), isolate MMX 7087 (Susceptible)) was 0.5 µg/mL and the MIC (Candida glabrata; read-out: MIC2 (50% inhibition), isolate MMX 7093 (FLU-R)) was 1 µg/mL. The MIC (Candida glabrata; read-out: MIC2 (50% inhibition), isolate MMX 7101 (FLU-R)) was 0.5 µg/mL, the MIC (Candida glabrata; read-out: MIC2 (50% inhibition), isolate MMX 7103 (CASP-R, MICA-R)) was 0.5 µg/mL and the MIC (Candida glabrata; read-out: MIC2 (50% inhibition), isolate MMX 7111 (Susceptible)) was 0.5 µg/mL. It also gave an MIC (Candida glabrata; read-out: MIC2 (50% inhibition), isolate MMX 7285 (CASP-R, MICA-R)) of 0.25 µg/mL, an MIC (Candida glabrata; read-out: MIC2 (50% inhibition), isolate MMX 7307 (CASP-R, MICA-R, FLU-R)) of 0.5 µg/mL and an MIC (Candida glabrata; read-out: MIC2 (50% inhibition), isolate MMX 7549 (Susceptible)) of 0.5 µg/mL. The “Expected MIC: goal (acceptable range)” value (S. aureus ATCC 29213) was 0.25 mcg/mL and 0.25 (0.12-0.5) mcg/mL, the MIC (C. glabrata; 24 h, C. glabrata MMX 7086) was 0.5 µg/mL and the MIC (C. glabrata; 24 h, C. glabrata MMX 7318) was 0.25 µg/mL. It also gave an MIC (C. glabrata; 48 h, C. glabrata MMX 7086) of 1 µg/mL, an MIC (C. glabrata; 48 h, C. glabrata MMX 7318) of 0.5 µg/mL and an MIC (C. tropicalis; 24 h, C. tropicalis MMX 7247) of 4 µg/mL. For the same compound, the MIC (C. tropicalis; 24 h, C. tropicalis MMX 7248) was 4 µg/mL, the MIC (C. tropicalis; 24 h, C. tropicalis MMX 7360) was 2 µg/mL and the MIC (C. tropicalis; 48 h, C. tropicalis MMX 7247) was 4 µg/mL. For the same compound, the MIC (C. tropicalis; 48 h, C. tropicalis MMX 7248) was 8 µg/mL, the MIC (C. tropicalis; 48 h, C. tropicalis MMX 7360) was 2 µg/mL and the MIC (Candida auris; read-out: MIC0 (complete inhibition), isolate MMX 9862 (Susceptible)) was 1 µg/mL. For the same compound, the MIC (Candida auris; read-out: MIC0 (complete inhibition), isolate MMX 9863 (FLU-R, VORI-R)) was 2 µg/mL, the MIC (Candida auris; read-out: MIC0 (complete inhibition), isolate MMX 9864 (FLU-R, VORI-R)) was 1 µg/mL and the MIC (Candida auris; read-out: MIC0 (complete inhibition), isolate MMX 9865 (FLU-R, VORI-R)) was 2 µg/mL. For the same compound, the MIC (Candida auris; read-out: MIC0 (complete inhibition), isolate MMX 9866 (FLU-R, VORI-R)) was 2 µg/mL, the MIC (Candida auris; read-out: MIC0 (complete inhibition), isolate MMX 9867 (FLU-R, VORI-R)) was 2 µg/mL and the MIC (Candida auris; read-out: MIC0 (complete inhibition), isolate MMX 9868 (FLU-R, VORI-R)) was 4 µg/mL. For the same compound, the MIC (Candida auris; read-out: MIC0 (complete inhibition), isolate MMX 9869 (FLU-R, VORI-R)) was 4 µg/mL, the MIC (Candida auris; read-out: MIC0 (complete inhibition), isolate MMX 9870 (FLU-R, VORI-R)) was 2 µg/mL and the MIC (Candida auris; read-out: MIC0 (complete inhibition), isolate MMX 9871 (Susceptible)) was 2 µg/mL. For the same compound, the MIC (Candida auris; read-out: MIC2 (50% inhibition), isolate MMX 9862 (Susceptible)) was 0.5 µg/mL, the MIC (Candida auris; read-out: MIC2 (50% inhibition), isolate MMX 9863 (FLU-R, VORI-R)) was 1 µg/mL and the MIC (Candida auris; read-out: MIC2 (50% inhibition), isolate MMX 9864 (FLU-R, VORI-R), result after 48 hr incubation (insufficient growth at 24 hr)) was 1 µg/mL. The MIC (Candida auris; read-out: MIC2 (50% inhibition), isolate MMX 9865 (FLU-R, VORI-R)) was 1 µg/mL, the MIC (Candida auris; read-out: MIC2 (50% inhibition), isolate MMX 9866 (FLU-R, VORI-R)) was 1 µg/mL and the MIC (Candida auris; read-out: MIC2 (50% inhibition), isolate MMX 9867 (FLU-R, VORI-R)) was 1 µg/mL. The MIC (Candida auris; read-out: MIC2 (50% inhibition), isolate MMX 9868 (FLU-R, VORI-R)) was 1 µg/mL, the MIC (Candida auris; read-out: MIC2 (50% inhibition), isolate MMX 9869 (FLU-R, VORI-R)) was 1 µg/mL and the MIC (Candida auris; read-out: MIC2 (50% inhibition), isolate MMX 9870 (FLU-R, VORI-R)) was 1 µg/mL. It also gave an MIC (Candida auris; read-out: MIC2 (50% inhibition), isolate MMX 9871 (Susceptible)) of 1 µg/mL.

From patent US11464749B2, “Bismuth-thiol compositions and methods of use” (Microbion Corporation, priority 2018, dated 2022)
